Assay results from PubChem BioAssay AID248 (DTP/NCI, 2004).
Several values for one entry are separate records, joined by “and”; a condition that tells them apart may be missing. Identical values can stand only once. Toxic doses and inconclusive results are not listed.

System: L1210 leukemia ip in BDF1 mice, survival T/C
Experiment: NCI In Vivo Anticancer Drug Screen. Data for tumor model L1210 Leukemia (intraperitoneal) in B6D2F1 (BDF1) mice
Conditions: endpoint: mean survival time, higher = longer survival
In short: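 Ratio derived from survival: compound-dosed mice over vehicle-dosed mice, all bearing a transplantable tumor.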

[1] = dose: 50.0 mg/kg/injection, schedule: Q01DX009 (ip), vehicle: Klucel (hydroxypropylcellulose) (HPC)
[2] = dose: 100.0 mg/kg/injection, schedule: Q01DX009 (ip), vehicle: saline with Tween-80
[3] = dose: 100.0 mg/kg/injection, schedule: Q04DX003 (ip), vehicle: saline with Tween-80
[4] = dose: 200.0 mg/kg/injection, schedule: Q01DX009 (ip), vehicle: saline with Tween-80
[5] = dose: 200.0 mg/kg/injection, schedule: Q04DX003 (ip), vehicle: saline with Tween-80
[6] = dose: 400.0 mg/kg/injection, schedule: Q01DX009 (ip), vehicle: saline with Tween-80
[7] = dose: 400.0 mg/kg/injection, schedule: Q04DX003 (ip), vehicle: saline with Tween-80
[8] = dose: 100.0 mg/kg/injection, schedule: Q04DX003 (ip), vehicle: Klucel (hydroxypropylcellulose) (HPC)
[9] = dose: 200.0 mg/kg/injection, schedule: Q04DX003 (ip), vehicle: Klucel (hydroxypropylcellulose) (HPC)
[10] = dose: 400.0 mg/kg/injection, schedule: Q04DX003 (ip), vehicle: Klucel (hydroxypropylcellulose) (HPC)
[11] = dose: 100.0 mg/kg/injection, schedule: Q01DX001 (ip), vehicle: saline
[12] = dose: 200.0 mg/kg/injection, schedule: Q01DX001 (ip), vehicle: saline
[13] = dose: 400.0 mg/kg/injection, schedule: Q01DX001 (ip), vehicle: saline
[14] = dose: 100.0 mg/kg/injection, schedule: Q04DX002 (ip), vehicle: saline
[15] = dose: 200.0 mg/kg/injection, schedule: Q04DX002 (ip), vehicle: saline
[16] = dose: 100.0 mg/kg/injection, schedule: Q01DX009 (ip), vehicle: gum acacia
[17] = dose: 100.0 mg/kg/injection, schedule: Q04DX003 (ip), vehicle: gum acacia
[18] = dose: 200.0 mg/kg/injection, schedule: Q01DX009 (ip), vehicle: gum acacia
[19] = dose: 400.0 mg/kg/injection, schedule: Q04DX003 (ip), vehicle: gum acacia
[20] = dose: 100.0 mg/kg/injection, schedule: Q01DX001 (ip), vehicle: saline with Tween-80
[21] = dose: 100.0 mg/kg/injection, schedule: Q04DX002 (ip), vehicle: saline with Tween-80
[22] = dose: 200.0 mg/kg/injection, schedule: Q01DX001 (ip), vehicle: saline with Tween-80
[23] = dose: 200.0 mg/kg/injection, schedule: Q04DX002 (ip), vehicle: saline with Tween-80
[24] = dose: 400.0 mg/kg/injection, schedule: Q01DX001 (ip), vehicle: saline with Tween-80
[25] = dose: 400.0 mg/kg/injection, schedule: Q04DX002 (ip), vehicle: saline with Tween-80

## O=NN(CCCl)C(=O)NC1CCC(NC(=O)N(CCCl)N=O)CC1 (centres undefined)
dose: 44.0 mg/kg/injection, schedule: Q01DX001 (ip), vehicle: other
  T/C: 162 % of control and 286 % of control
dose: 63.0 mg/kg/injection, schedule: Q01DX001 (ip), vehicle: carboxymethylcellulose (CMC)
  T/C: 247 % of control
dose: 67.0 mg/kg/injection, schedule: Q01DX001 (ip), vehicle: other
  T/C: 168 % of control and 328 % of control
dose: 82.0 mg/kg/injection, schedule: Q01DX001 (ip), vehicle: carboxymethylcellulose (CMC)
  T/C: 267 % of control
dose: 100.0 mg/kg/injection, schedule: Q01DX001 (ip), vehicle: other
  T/C: 305 % of control and 314 % of control
dose: 125.0 mg/kg/injection, schedule: Q01DX001 (ip), vehicle: carboxymethylcellulose (CMC)
  T/C: 310 % of control
dose: 127.0 mg/kg/injection, schedule: Q01DX001 (ip), vehicle: carboxymethylcellulose (CMC)
  T/C: 342 % of control
dose: 150.0 mg/kg/injection, schedule: Q01DX001 (ip), vehicle: other
  T/C: 268 % of control and 180 % of control
dose: 187.0 mg/kg/injection, schedule: Q01DX001 (ip), vehicle: carboxymethylcellulose (CMC)
  T/C: 290 % of control
dose: 225.0 mg/kg/injection, schedule: Q01DX001 (ip), vehicle: other
  T/C: 285 % of control and 178 % of control
dose: 255.0 mg/kg/injection, schedule: Q01DX001 (ip), vehicle: carboxymethylcellulose (CMC)
  T/C: 344 % of control
dose: 280.0 mg/kg/injection, schedule: Q01DX001 (ip), vehicle: carboxymethylcellulose (CMC)
  T/C: 275 % of control
dose: 337.0 mg/kg/injection, schedule: Q01DX001 (ip), vehicle: other
  T/C: 306 % of control
dose: 510.0 mg/kg/injection, schedule: Q01DX001 (ip), vehicle: carboxymethylcellulose (CMC)
  T/C: 181 % of control

## O=C(Nc1ccccc1)c1ccco1
[1]
  T/C: 102 % of control
dose: 100.0 mg/kg/injection, schedule: Q01DX009 (ip), vehicle: Klucel (hydroxypropylcellulose) (HPC)
  T/C: 102 % of control
dose: 100.0 mg/kg/injection, schedule: Q04DX002 (ip), vehicle: Klucel (hydroxypropylcellulose) (HPC)
  T/C: 102 % of control
dose: 200.0 mg/kg/injection, schedule: Q01DX009 (ip), vehicle: Klucel (hydroxypropylcellulose) (HPC)
  T/C: 100 % of control
dose: 200.0 mg/kg/injection, schedule: Q04DX002 (ip), vehicle: Klucel (hydroxypropylcellulose) (HPC)
  T/C: 98 % of control
dose: 400.0 mg/kg/injection, schedule: Q04DX002 (ip), vehicle: Klucel (hydroxypropylcellulose) (HPC)
  T/C: 91 % of control

## O=[N+]([O-])c1ccccc1CN1CCCCC1
dose: 5.0 mg/kg/injection, schedule: Q01DX001 (ip), vehicle: saline
  T/C: 102 % of control
dose: 10.0 mg/kg/injection, schedule: Q01DX001 (ip), vehicle: saline
  T/C: 102 % of control
dose: 20.0 mg/kg/injection, schedule: Q01DX001 (ip), vehicle: saline
  T/C: 102 % of control

## Cc1ccc(C(=O)O)cc1S(=O)(=O)F
[2]
  T/C: 96 % of control
[3]
  T/C: 107 % of control
[4]
  T/C: 96 % of control
[5]
  T/C: 91 % of control
[6]
  T/C: 90 % of control
[7]
  T/C: 91 % of control

## Cc1cc(=O)n(Cc2ccccc2)c(=O)[nH]1
[8]
  T/C: 98 % of control
[9]
  T/C: 98 % of control
[10]
  T/C: 93 % of control

## CC(C)(C)c1ccc(S(=O)(=O)c2ccc(C(C)(C)C)cc2)cc1
[8]
  T/C: 94 % of control
[9]
  T/C: 105 % of control
[10]
  T/C: 91 % of control

## O=C(Nc1cccc(O)c1)Nc1cccc(Cl)c1Cl
[2]
  T/C: 91 % of control
[4]
  T/C: 92 % of control
[6]
  T/C: 94 % of control

## COC(=O)C1C2C(C)=CC(O)(CC2(C)C)C1C(=O)OC (centres undefined)
[11]
  T/C: 95 % of control
[12]
  T/C: 95 % of control
[13]
  T/C: 101 % of control

## Nc1ncnc2c1ncn2C1OC(COP(=O)(O)OCC(N)Cc2ccccc2)C(O)C1O (centres undefined)
dose: 100.0 mg/kg/injection, schedule: Q01DX005 (ip), vehicle: saline
  T/C: 87 % of control
dose: 200.0 mg/kg/injection, schedule: Q01DX005 (ip), vehicle: saline
  T/C: 107 % of control

## COc1cc(/C=C2\C(O)C3CCN2CC3)cc(OC)c1OC (centres undefined)
[14]
  T/C: 115 % of control
[15]
  T/C: 118 % of control

## CN(Cc1ccc(Cl)cc1)C(=O)Nc1ccccc1C(F)(F)F
[2]
  T/C: 108 % of control
[4]
  T/C: 106 % of control
[6]
  T/C: 103 % of control

## COc1ccc(C2N(C=O)CC34CC(=O)C=CC23C4)cc1O (centres undefined)
dose: 100.0 mg/kg/injection, schedule: Q04DX003 (ip), vehicle: saline
  T/C: 95 % of control
dose: 200.0 mg/kg/injection, schedule: Q04DX003 (ip), vehicle: saline
  T/C: 93 % of control
dose: 400.0 mg/kg/injection, schedule: Q04DX003 (ip), vehicle: saline
  T/C: 95 % of control

## O=C(NCc1ccco1)NCc1ccco1
dose: 25.0 mg/kg/injection, schedule: Q01DX009 (ip), vehicle: Klucel (hydroxypropylcellulose) (HPC)
  T/C: 91 % of control
dose: 25.0 mg/kg/injection, schedule: Q04DX003 (ip), vehicle: Klucel (hydroxypropylcellulose) (HPC)
  T/C: 103 % of control
[1]
  T/C: 96 % of control
dose: 50.0 mg/kg/injection, schedule: Q04DX003 (ip), vehicle: Klucel (hydroxypropylcellulose) (HPC)
  T/C: 97 % of control
[8]
  T/C: 98 % of control and 101 % of control

## CCOC(=O)C(=N\Nc1cccc(C)c1C)/C(C)=N\NC(N)=S
dose: 75.0 mg/kg/injection, schedule: Q01DX001 (ip), vehicle: saline
  T/C: 94 % of control
dose: 150.0 mg/kg/injection, schedule: Q01DX001 (ip), vehicle: saline
  T/C: 97 % of control
dose: 300.0 mg/kg/injection, schedule: Q01DX001 (ip), vehicle: saline
  T/C: 97 % of control

## CCCCCCCCCCCCCCCCCCCCCCOC(=O)CCC(=O)OCCCCCCCCCCCCCCCCCCCCCC
[16]
  T/C: 86 % of control
[17]
  T/C: 95 % of control
[18]
  T/C: 86 % of control
dose: 200.0 mg/kg/injection, schedule: Q04DX003 (ip), vehicle: gum acacia
  T/C: 92 % of control
[19]
  T/C: 92 % of control

## S=P(NCCCCCCNP(=S)(N1CC1)N1CC1)(N1CC1)N1CC1
dose: 100.0 mg/kg/injection, schedule: Q01DX001 (ip), vehicle: carboxymethylcellulose (CMC)
  T/C: 104 % of control
dose: 200.0 mg/kg/injection, schedule: Q01DX001 (ip), vehicle: carboxymethylcellulose (CMC)
  T/C: 112 % of control
dose: 400.0 mg/kg/injection, schedule: Q01DX001 (ip), vehicle: carboxymethylcellulose (CMC)
  T/C: 119 % of control

## CCCCCCCCCCCC(=O)NC(=S)Nc1ccc(C(=O)O)cc1
[20]
  T/C: 103 % of control
[2]
  T/C: 98 % of control and 101 % of control
[21]
  T/C: 102 % of control and 105 % of control
[3]
  T/C: 101 % of control
[22]
  T/C: 102 % of control
[4]
  T/C: 93 % of control and 103 % of control
[23]
  T/C: 100 % of control and 112 % of control
[5]
  T/C: 98 % of control
[24]
  T/C: 96 % of control
[6]
  T/C: 101 % of control and 92 % of control
[25]
  T/C: 103 % of control and 115 % of control
[7]
  T/C: 101 % of control

## CCOC(=O)C(C(C)=O)C(CCCCO)C(C(C)=O)C(=O)OCC (centres undefined)
[11]
  T/C: 97 % of control
[12]
  T/C: 101 % of control
[13]
  T/C: 94 % of control

## CCC(=O)c1ccc(OCC(O)CN2CCN(c3ccccc3Cl)CC2)cc1 (centres undefined)
[20]
  T/C: 101 % of control
[2]
  T/C: 95 % of control
[22]
  T/C: 104 % of control
[4]
  T/C: 95 % of control
[24]
  T/C: 102 % of control
[6]
  T/C: 88 % of control

## COc1ccc(C2NC(=O)N3C(c4ccc(OC)cc4)NC(=O)N23)cc1 (centres undefined)
[16]
  T/C: 105 % of control
[17]
  T/C: 97 % of control
[18]
  T/C: 89 % of control
dose: 400.0 mg/kg/injection, schedule: Q01DX009 (ip), vehicle: gum acacia
  T/C: 93 % of control
[19]
  T/C: 94 % of control

## CC(C)CCCC(C)C1CCC2C3CC=C4CC(O[N+](=O)[O-])CCC4(C)C3CCC12C (centres undefined)
[21]
  T/C: 102 % of control
[23]
  T/C: 112 % of control
[25]
  T/C: 102 % of control

## COc1ccccc1-c1cn(O)c2nc(=N)nc(N)c-2n1
[14]
  T/C: 97 % of control
[15]
  T/C: 94 % of control
dose: 400.0 mg/kg/injection, schedule: Q04DX002 (ip), vehicle: saline
  T/C: 111 % of control
